Legend:
PRMT5/MEP50 = target: T1, PRMT5/MEP50 (Homo sapiens, UniProt O14744); test: PRMT5 enzymatic activity inhibition experiment (AlphaScreen); type: biochemical
T1 construct: purchased BPS Bioscience Inc. (USA)
Text: Materials: PRMT5/MEP50 proteins were purchased from BPS Bioscience Inc. (USA); Histone H4 Peptide substrate was purchased from Sangon Biotech (Shanghai) Co., Ltd.; Anti-Histone H4 (symmetric dimethyl R3) antibody—ChIP Grade was purchased from Abcam PLC. (USA); S-(5′-Adenosyl)-L-methionine chloride dihydrochloride was purchased from Sigma PLC. (USA); 384-well plate, AlphaScreen Streptavidin Donor beads, AlphaScreen Protein A Acceptor beads, and Envision 2104 multi-label Reader were purchased from Perkin-Elmer Instruments (USA) Corporation; and Echo 550 Liquid Handler was purchased from Labcyte Inc. (USA).
Enzymatic activity assay: The compounds were added into a 384-well plate by using the Echo 550 Liquid Handler with the final concentration of 0-1000 nM (initial concentration: 1000 nM, 3-fold dilution, for 10 points), and the DMSO content was 0.5%. 10 μL of a 2× PRMT5/MEP50 solution was added into each well and incubated at room temperature for 30 minutes. 10 μL of 2× PRMT5/MEP50 substrate solution was added to each well to start the reaction and incubated at room temperature for 60 minutes. A 6× detection reagent containing AlphaScreen Protein A Acceptor beads and Anti-Histone H4 (symmetric dimethyl R3) antibodies was prepared and 5 μL was added to each well. The plate was incubated at room temperature for 60 minutes. A 6× detection reagent containing AlphaScreen Streptavidin Donor beads was prepared and 5 μL was added to each well. The plate was incubated at room temperature for 60 minutes. The signal values were detected by using the Envision.

[1] = tested on: Z-138 subcutaneous tumor models; test: In vivo drug efficacy experiment in mice, Z-138 subcutaneous tumor model
Text: Experimental materials: Z138 cells were purchased from ATCC; IMDM culture solution, penicillin-streptomycin and 0.25% trypsin-EDTA were purchased from Gibco; horse serum and PBS were purchased from Hyclone; and Matrigel was purchased from Corning.
Animal information: CB17-SCID mice (female, 6-7 weeks, body weight: about 14-20 g) were purchased from Shanghai Lingchang Biotechnology Co., Ltd. The mice were fed in SPF environment and each cage position was individually ventilated. All animals had free access to standard certified commercial laboratory food and water.
Cell culture: Human mantle cell lymphoma Z-138 cell lines were cultured in vitro and the culture conditions involve: IMDM (cell culture solution) supplemented with 10% horse serum and 1% penicillin-streptomycin solution, 37° C., 5% CO2 incubator. Conventional digestion treatment with 0.25% trypsin-EDTA digestion solution was carried out twice a week for passage. When the cell saturation was 85%-90%, and the number reached the requirement, the cells were collected and counted.
Cell inoculation: 0.1 ml/(containing 1×10^7) Z-138 cell suspension (PBS Matrigel=1:1) was inoculated subcutaneously on the right back of each mouse. At day 18 post inoculation, when the average tumor volume measured has reached about 125 mm^3, grouping and administration were performed by using the randomized stratification and grouping method based on the tumor volume and animal body weight. PBS was a phosphate buffer free of Ca and Mg ions, and Matrigel was a matrix gel.
Administration: Compound 002 was administered at the doses of 1.5 mg/kg, 5 mg/kg, or 15 mg/kg, PO, twice daily (BID)×3 weeks. 6 mice per group.
The diameter of the tumor was measured with vernier calipers twice a week. The calculation formula of tumor volume was V=0.5a×b2, wherein a and b represented the long and short diameters of the tumor, respectively. The body weights of the mice were weighed twice a week.
The tumor-inhibiting efficacy of the compound was evaluated using tumor growth inhibition (TGI) (%).
TGI (%)=[(1−(average tumor volume at the end of administration in a certain treatment group−average tumor volume at the beginning of administration in the treatment group)/(average tumor volume at the end of administration in the solvent control group−average tumor volume at the beginning of administration in the solvent control group)]×100%.

[2] = tested doses 1.5, 5, 15 mg/kg BID

T1 sequence (O14744 2-637 limits assumed): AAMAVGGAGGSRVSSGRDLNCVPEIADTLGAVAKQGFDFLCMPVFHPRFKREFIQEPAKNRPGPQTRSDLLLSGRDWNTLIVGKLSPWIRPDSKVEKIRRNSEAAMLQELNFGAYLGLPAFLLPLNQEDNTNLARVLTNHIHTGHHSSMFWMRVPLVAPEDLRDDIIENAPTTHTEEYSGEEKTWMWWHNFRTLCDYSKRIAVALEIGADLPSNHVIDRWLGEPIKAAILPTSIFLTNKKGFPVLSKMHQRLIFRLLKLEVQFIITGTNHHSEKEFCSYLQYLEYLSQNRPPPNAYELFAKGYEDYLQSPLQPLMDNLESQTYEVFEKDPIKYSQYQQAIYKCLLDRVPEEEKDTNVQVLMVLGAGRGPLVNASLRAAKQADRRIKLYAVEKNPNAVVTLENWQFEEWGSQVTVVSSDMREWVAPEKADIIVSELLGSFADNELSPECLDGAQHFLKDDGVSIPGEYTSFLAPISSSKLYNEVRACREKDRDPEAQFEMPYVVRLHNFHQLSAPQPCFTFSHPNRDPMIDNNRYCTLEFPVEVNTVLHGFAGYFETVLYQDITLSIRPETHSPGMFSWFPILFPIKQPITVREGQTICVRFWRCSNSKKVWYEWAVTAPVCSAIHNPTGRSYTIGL
T1 sequence (Q9BQA1 2-342 partner limits assumed): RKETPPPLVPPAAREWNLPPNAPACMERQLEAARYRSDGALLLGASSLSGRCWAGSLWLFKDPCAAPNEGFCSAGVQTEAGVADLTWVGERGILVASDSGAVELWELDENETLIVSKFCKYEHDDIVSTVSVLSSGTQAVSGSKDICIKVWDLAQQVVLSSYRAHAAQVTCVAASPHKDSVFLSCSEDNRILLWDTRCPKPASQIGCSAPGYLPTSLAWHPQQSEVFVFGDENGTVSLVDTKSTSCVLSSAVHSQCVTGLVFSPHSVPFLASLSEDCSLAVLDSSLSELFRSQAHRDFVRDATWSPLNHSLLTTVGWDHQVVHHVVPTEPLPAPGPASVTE

CCN1CCN(C[C@@H](O)[C@@H]2Cc3ccccc3CN2)C(=O)c2ccc(C(=O)N3CCC4(CC3)CC(OC)C4)cc21.Cl [Compound 002, 1-ethyl-4-((R)-2-hydroxy-2-((S)-1,2,3,4-tetrahydroisoquinolin-3-yl)ethyl)-8-(2-methoxy-7-azaspiro[3.5]nonane-7-carbonyl)-1,2,3,4-tetrahydro-5H-benzo[e][1,4]diazepin-5-one hydrochloride]
IC50 (PRMT5/MEP50): 4.05 nM
TGI ([1]; 1.5 mg/kg PO BID x 3 weeks): 36.0%
Average tumor volume ([1]; 1.5 mg/kg PO BID, 0 Day): 125 mm^3
Average tumor volume ([1]; 1.5 mg/kg PO BID, 4 Day): 151 mm^3
Average tumor volume ([1]; 1.5 mg/kg PO BID, 7 Day): 203 mm^3
Average tumor volume ([1]; 1.5 mg/kg PO BID, 11 Day): 374 mm^3
Average tumor volume ([1]; 1.5 mg/kg PO BID, 14 Day): 436 mm^3
Average tumor volume ([1]; 1.5 mg/kg PO BID, 18 Day): 567 mm^3
Average tumor volume ([1]; 1.5 mg/kg PO BID, 21 Day): 689 mm^3
TGI ([1]; 5 mg/kg PO BID x 3 weeks): 47.8%
Average tumor volume ([1]; 5 mg/kg PO BID, 0 Day): 124 mm^3
Average tumor volume ([1]; 5 mg/kg PO BID, 4 Day): 157 mm^3
Average tumor volume ([1]; 5 mg/kg PO BID, 7 Day): 197 mm^3
Average tumor volume ([1]; 5 mg/kg PO BID, 11 Day): 281 mm^3
Average tumor volume ([1]; 5 mg/kg PO BID, 14 Day): 310 mm^3
Average tumor volume ([1]; 5 mg/kg PO BID, 18 Day): 452 mm^3
Average tumor volume ([1]; 5 mg/kg PO BID, 21 Day): 585 mm^3
TGI ([1]; 15 mg/kg PO BID x 3 weeks): 112.5%
Average tumor volume ([1]; 15 mg/kg PO BID, 0 Day): 126 mm^3
Average tumor volume ([1]; 15 mg/kg PO BID, 4 Day): 140 mm^3
Average tumor volume ([1]; 15 mg/kg PO BID, 7 Day): 113 mm^3
Average tumor volume ([1]; 15 mg/kg PO BID, 11 Day): 59 mm^3
Average tumor volume ([1]; 15 mg/kg PO BID, 14 Day): 34 mm^3
Average tumor volume ([1]; 15 mg/kg PO BID, 18 Day): 18 mm^3
Average tumor volume ([1]; 15 mg/kg PO BID, 21 Day): 16 mm^3
Death in mice [1, 2]: nor did they cause any death in mice
Effect on body weights of the mice [1, 2]: do not significantly affect the body weights of the mice
Tolerability [1, 2]: the mice can tolerate the doses
Effect on tumor growth ([1]; twice daily at 1.5 mg/kg, 5 mg/kg and 15 mg/kg): significant inhibitory effects on tumor growth
Effect on tumor size ([1]; twice daily at 15 mg/kg): effect of shrinking tumor

From patent US20230250108A1, “TETRAHYDROISOQUINOLINE COMPOUNDS AND USE THEREOF” (JIANGSU SIMCERE PHARMACEUTICAL CO., LTD., priority 2020, published 2023)
